Measurements as given in patent publication US20160106722A1, “HUMAN THERAPEUTIC AGENTS” (Life Plus, LLC, priority 2014, published 2016).

Assays:
Experiment in all cases: Cancer spheroid cell death test (PrestoBlue)
Assay type in all cases: cell-based
[1] = test system: human ovarian cancer cells (A1847); conditions: for anticancer effects (cell number versus increasing concentrations): compound alone
Procedure: (§1) Custom-made micromolds with 100 μm diameter wells were loaded with the cells (U.S. Pat. No. 8,735,154, incorporated by reference herein). The media were changed every day by partial replacement. Cell aggregates were allowed to form in the micromolds for 72 hours and then were transferred to a 100 mm non-treated tissue culture dishes for 3 additional days. The spheroids were passed through 70 μm and 100 μm cell strainers (#3431751 and #43152, Corning, Tewksbury, Mass.) and maintained in HEPES Balanced Salt Solution comprised of: 20 mM HEPES, 114 mM NaCl, 4.7 mM KCl, 1.2 mM KH2PO4, 1.16 mM MgSO4, 2.5 mM CaCl2, 25.5 mM NaHCO3 and 0.2% bovine serum albumin (fatty acid free), pH 7.2.
(§2) The cells were treated and tested as set forth in Example 1.

[2] = test system: human prostate cancer cells (22rv1); conditions: compound alone
Procedure: as §1, §2

[3] = test system: human lung cancer cells (H358); conditions: compound alone
Procedure: as §1
The lymphomas treatment methods used were identical to those described in Example 2 relative to the pediatric leukemia cells, whereas the lung cancer treatment method was the same as described in Example 1.

| Compound | anticancer effects (cell number versus increasing concentrations) [1] | anticancer effects (cell number versus increasing concentrations) [2] | anticancer effects (cell number versus increasing concentrations) [3] | cell death, doxorubicin alone ([1]; low doses of doxorubicin alone (up to 0.158 μM)) |
| --- | --- | --- | --- | --- |
| COc1cccc(C=O)c1O [O-vanillin] | demonstrated anticancer effects | demonstrated anticancer effects | demonstrated anticancer effects | – |
| COc1cccc2c1C(=O)c1c(O)c3c(c(O)c1C2=O)C[C@@](O)(C(=O)CO)C[C@@H]3O[C@H]1C[C@H](N)[C@H](O)[C@H](C)O1 [doxorubicin, reference compound] | – | – | – | ineffective |
| COc1ccc2c3c([nH]c2c1)C(C)=NCC3 [harmaline] | demonstrated anticancer effects | demonstrated anticancer effects | demonstrated anticancer effects | – |
| CC1=NCCc2c1[nH]c1cc(O)ccc21.Cl [harmalol hydrochloride] | demonstrated anticancer effects | demonstrated anticancer effects | demonstrated anticancer effects | – |
| Cc1nccc2c1[nH]c1cc(O)ccc12.Cl [harmole hydrochloride] | demonstrated anticancer effects | demonstrated anticancer effects | demonstrated anticancer effects | – |
| COc1ccc(C(=O)O)cc1O [isovanillic acid] | demonstrated anticancer effects | demonstrated anticancer effects | demonstrated anticancer effects | – |
| COc1ccc(CO)cc1O [isovanillyl alcohol] | demonstrated anticancer effects | demonstrated anticancer effects | demonstrated anticancer effects | – |
| COc1ccc2c3c([nH]c2c1)[C@@H](C)NCC3 [tetrahydro-harmine] | demonstrated anticancer effects | demonstrated anticancer effects | demonstrated anticancer effects | – |
| COc1cc(C=O)ccc1O [vanillin] | demonstrated anticancer effects | demonstrated anticancer effects | demonstrated anticancer effects | – |
